Key:
MSSA [1] = experiment: Recombinant phage luciferase assay, oxacillin vs cefoxitin (Table 1), MSSA strains; type: cell-based, Staphylococcus aureus
Experimental: Bacterial strains were serially diluted to approximately 1×10^3 CFU/mL and transferred to a 96-well plate at 135 μL per well. 15 μL of oxacillin or cefoxitin were added to the wells to reach a final concentration of 1.0 μg/mL or 2.0 μg/mL of oxicillin or 2.0 μg/mL, 4.0 μg/mL, 8.0 μg/mL, or 10.0 μg/mL of cefoxitin. The plate was then sealed and incubated at 37° C. for 2 hours. 10 μL of recombinant phage (1.6×10^8 pfu/mL) was added to each well. The plate was then re-sealed and incubated at 37° C. for 2 hours. A master mix was made containing 15 μL 5× lysis buffer, 50 μL luciferase assay buffer, and 1 μL luciferase substrate per well. 65 μL of master mix was added to each well. Luminescence from the reactions was read on a GLOMAX® Navigator and relative luminal units (RLU) for each reaction were analyzed. RLU values three times greater than an established background RLU level for LB (>750 RLU) were considered positive. The results, shown in Table 1, indicate that the recombinant phage are capable of detecting the tested bacterial strains.

MSSA [2] = experiment: Optimization of cefoxitin concentration (Table 2), MSSA strains; type: cell-based, Staphylococcus aureus
Experimental: Bacterial strains were serially diluted to approximately 1×10^3 CFU/mL and transferred to a 96-well plate at 135 μL per well. 15 μL of cefoxitin was added to the wells to reach a final concentration of 1.4 μg/mL, 1.6 μg/mL, 1.8 μg/mL or 2.0 μg/mL. The plate was then sealed and incubated at 37° C. for 2 hours. 10 μL of recombinant phage (1.6×10^8 pfu/mL) was added to each well. The plate was then re-sealed and incubated at 37° C. for an additional 2 hours. A master mix was made containing 15 μL 5× lysis buffer, 50 μL luciferase assay buffer, and 1 μL luciferase substrate per well. 65 μL of master mix was added to each well. Luminescence from the reactions were read on a GLOMAX® Navigator and relative luminal units (RLU) for each reaction were plotted and analyzed. RLU values three times greater than an established background RLU level for LB (>750 RLU) were considered positive. The results, shown in Table 2, indicate that the recombinant phage are capable of detecting these bacterial strains. […] Positive results are in bold.

[3] = strain 12600 MSSA, detected CFU 389
[4] = strain AR0484 MSSA, detected CFU 153
[5] = strain AR0488 MSSA, detected CFU 285
[6] = strain AR0491 MSSA, detected CFU 300
[7] = strain 12600 MSSA, detected CFU 401
[8] = strain AR0484 MSSA, detected CFU 107
[9] = strain AR0485 MSSA, detected CFU 248
[10] = strain AR0486 MSSA, detected CFU 163
[11] = strain AR0487 MSSA, detected CFU 198
[12] = strain AR0488 MSSA, detected CFU 360
[13] = strain AR0489 MSSA, detected CFU 186
[14] = strain AR0490 MSSA, detected CFU 109
[15] = strain AR0491 MSSA, detected CFU 239
[16] = strain AR0492 MSSA, detected CFU 130
[17] = strain BAA-1721 MSSA, detected CFU 166

## CO[C@@]1(NC(=O)Cc2cccs2)C(=O)N2C(C(=O)O)=C(COC(N)=O)CS[C@@H]21 [Cefoxitin, cefoxitin]
MSSA [1]; 2 ug/mL
  detection after incubation with cefoxitin: selective loss of MSSA detection
  susceptibility of MSSA strains: susceptible
MSSA [1]; [3]
  Cefoxitin (RLU) 2 ug/mL: 797 RLU
  Cefoxitin (RLU) 4 ug/mL: 475 RLU
  Cefoxitin (RLU) 8 ug/mL: 332 RLU
  Cefoxitin (RLU) 10 ug/mL: 277 RLU
MSSA [1]; [4]
  Cefoxitin (RLU) 2 ug/mL: 227 RLU
  Cefoxitin (RLU) 4 ug/mL: 195 RLU
  Cefoxitin (RLU) 8 ug/mL: 197 RLU
  Cefoxitin (RLU) 10 ug/mL: 204 RLU
MSSA [1]; [5]
  Cefoxitin (RLU) 2 ug/mL: 254 RLU
  Cefoxitin (RLU) 4 ug/mL: 220 RLU
  Cefoxitin (RLU) 8 ug/mL: 213 RLU
  Cefoxitin (RLU) 10 ug/mL: 229 RLU
MSSA [1]; [6]
  Cefoxitin (RLU) 2 ug/mL: 207 RLU
  Cefoxitin (RLU) 4 ug/mL: 234 RLU
  Cefoxitin (RLU) 8 ug/mL: 187 RLU
  Cefoxitin (RLU) 10 ug/mL: 191 RLU
MSSA [2]; 1.8 ug/mL, most MSSA strains
  effect on positive signal: selectively inhibit a positive signal
MSSA [2]; [7]
  Cefoxitin Concentration 1.4 ug/mL: 2489 RLU
  Cefoxitin Concentration 1.6 ug/mL: 1596 RLU
  Cefoxitin Concentration 1.8 ug/mL: 974 RLU
  Cefoxitin Concentration 2 ug/mL: 750 RLU
MSSA [2]; [8]
  Cefoxitin Concentration 1.4 ug/mL: 174 RLU
  Cefoxitin Concentration 1.6 ug/mL: 176 RLU
  Cefoxitin Concentration 1.8 ug/mL: 187 RLU
  Cefoxitin Concentration 2 ug/mL: 181 RLU
MSSA [2]; [9]
  Cefoxitin Concentration 1.4 ug/mL: 1328 RLU
  Cefoxitin Concentration 1.6 ug/mL: 812 RLU
  Cefoxitin Concentration 1.8 ug/mL: 655 RLU
  Cefoxitin Concentration 2 ug/mL: 404 RLU
MSSA [2]; [10]
  Cefoxitin Concentration 1.4 ug/mL: 4238 RLU
  Cefoxitin Concentration 1.6 ug/mL: 1743 RLU
  Cefoxitin Concentration 1.8 ug/mL: 1099 RLU
  Cefoxitin Concentration 2 ug/mL: 794 RLU
MSSA [2]; [11]
  Cefoxitin Concentration 1.4 ug/mL: 336 RLU
  Cefoxitin Concentration 1.6 ug/mL: 227 RLU
  Cefoxitin Concentration 1.8 ug/mL: 204 RLU
  Cefoxitin Concentration 2 ug/mL: 165 RLU
MSSA [2]; [12]
  Cefoxitin Concentration 1.4 ug/mL: 2274 RLU
  Cefoxitin Concentration 1.6 ug/mL: 1149 RLU
  Cefoxitin Concentration 1.8 ug/mL: 402 RLU
  Cefoxitin Concentration 2 ug/mL: 256 RLU
MSSA [2]; [13]
  Cefoxitin Concentration 1.4 ug/mL: 6208 RLU
  Cefoxitin Concentration 1.6 ug/mL: 3172 RLU
  Cefoxitin Concentration 1.8 ug/mL: 2029 RLU
  Cefoxitin Concentration 2 ug/mL: 870 RLU
MSSA [2]; [14]
  Cefoxitin Concentration 1.4 ug/mL: 1277 RLU
  Cefoxitin Concentration 1.6 ug/mL: 598 RLU
  Cefoxitin Concentration 1.8 ug/mL: 423 RLU
  Cefoxitin Concentration 2 ug/mL: 258 RLU
MSSA [2]; [15]
  Cefoxitin Concentration 1.4 ug/mL: 1438 RLU
  Cefoxitin Concentration 1.6 ug/mL: 676 RLU
  Cefoxitin Concentration 1.8 ug/mL: 518 RLU
  Cefoxitin Concentration 2 ug/mL: 338 RLU
MSSA [2]; [16]
  Cefoxitin Concentration 1.4 ug/mL: 1883 RLU
  Cefoxitin Concentration 1.6 ug/mL: 839 RLU
  Cefoxitin Concentration 1.8 ug/mL: 556 RLU
  Cefoxitin Concentration 2 ug/mL: 246 RLU
MSSA [2]; [17]
  Cefoxitin Concentration 1.4 ug/mL: 2753 RLU
  Cefoxitin Concentration 1.6 ug/mL: 1087 RLU
  Cefoxitin Concentration 1.8 ug/mL: 441 RLU
  Cefoxitin Concentration 2 ug/mL: 258 RLU

Reference: patent US11952611B2, “Methods and systems for detection of antibiotic resistance” (Laboratory Corporation of America Holdings, priority 2017, dated 2024)
